From patent US6627641B1, “Antimalarial naphthylisoquinoline alkaloids and pharmaceutical compositions and medical uses thereof” (The United States of America as represented by the …, priority 1994, dated 2003)
Values after ≈ are worked out from the molar mass of the structure shown.

Assays:
[1] = tested on: P. falciparum (NF54 strain, clone A149); experiment: In vitro 3H-hypoxanthine incorporation test with P. falciparum NF 54; format: cell-based, Plasmodium falciparum; settings: NF 54, clone A149; six repeats; max. concentration 50 or 5 μg/ml
Experimental: Continuous in vitro cultures of asexual erythrocytic stages of P. falciparum (strain NF 54/64, clone A1A9) were maintained following essentially the method of Trager and Jensen (Science, 193, 673-675, 1976) at 37° C. under an atmosphere of 5% CO2, 5% O2, and 90% N2. The host cells were human erythrocytes (A or O Rh+). The culture medium was RPMI 1640 (Gibco), containing HEPES (BDH; 4.57 gL^−1), glucose (Sigma; 1.54 gL^−1), 5% NaHCO3 (Merck; 34.78 mlL^−1), and gentamycin (Merck; 8.70 mlL^−1) supplemented with 10% human plasma (A Rh+). Parasites were subinoculated every 3-4 days with initial conditions of 1% parasitemia and 1% hematocrit.
(§1) In vitro testing with P. falciparum was as follows. Each compound was dissolved in DMSO at a concentration of 20 mg ml^−1. These solutions were further diluted with physiological saline to obtain a stock solution of 500 μg ml^−1. Each test substance was applied in a series of seven, 4-fold dilutions (maximum concentrations 50 or 5 μg ml^−1). Each compound was tested in 6-fold repeats. Chloroquine was tested similarly, as a positive control.
(§2) The test protocol was performed in vitro, based upon the method of Desjardins, et al. (Antimicrobial Agents Chemother., 16, 710-715, 1979). The parasites (200 μl of a suspension with initial parasitemia of 0.5% and hematocrit of 1.5%) were incubated for 24 h in microtitre plates (Falcon MicroTest III) in hypoxanthine-free medium in the presence of 25 μl of test solution. The plates contained a negative control (6 wells with non-parasitized RBC's, no drug) and a positive control (6 wells with parasitized RBC's no drug). Thereafter, 25 μl of ^3H-hypoxanthine solution (Amersham) was added (0.5 μCi well ^−1), and the parasites were incubated for a further period of 18 h. Each well was harvested with a Cell Harvester (Nunc). The filter papers were dried for 2 h at 52° C., and their radioactivity was measured by liquid scintillation counting in Optiscint HiSafe (LKB Pharmacia).
(§3) The mean results, obtained as counts per min (cpm), were expressed as percentages of incorporation or growth inhibition. The sigmoid dose-response curve was then linearized by probit analysis with the aid of software provided by IWONL (Gent), adapted by G. Timperman and used to derive the IC50 values.

[2] = tested on: P. berghei (Anka); experiment: In vitro 3H-hypoxanthine incorporation test with P. berghei (Anka); format: cell-based, Plasmodium berghei; settings: Anka strain
Experimental: as §1, §2, §3
For experiments with P. berghei (Anka strain), the parasites were maintained, and the in vitro tests performed essentially the same as above, except for the following modification. In the case of tests using P. berghei, the parasites were incubated in the same conditions as for P. falciparum (above) except that the incubations were started immediately in the presence of the ^3H-hypoxanthine and for 24 hour total duration (i.e., no delay in the addition of the ^3H-hypoxanthine). As before, the incorporated radioactivity was used as a-measure for parasite growth.

[3] = tested on: P. falciparum (K1 strain); experiment: In vitro 3H-hypoxanthine incorporation test with chloroquine-resistant P. falciparum K1; format: cell-based, Plasmodium falciparum
Experimental: Selected compounds were also tested against drug-resistant parasites. The method was the same as above except for the following modifications. The parasite used was the chloroquine-resistant strain, K1, maintained essentially according to Desjardins, et al. (supra, 1979). The culture medium was RPMI-1640 containing TES (Sigma; 7.64 gL^−1), glucose (BDH; 1.67 gL^−1), NaHCO3 (BDH; 1.94 gL^−1), and gentamycin (Nicholas; 30 mgL^−1) supplemented with 10% human serum (A RH+). Parasites were subinoculated every 3-4 days with initial conditions of 1% parasitemia and 2.5% hematocrit. For the testing, small aliquots of test material were dissolved in 20 μl EtOH and RPMI 1640 to give solutions of 1 or 10 mg ml^−1. Each was applied in a series of twelve, […] dilutions (final […] ranging from 50 to 1.19×10^−3 μg ml^−1). Chloroquine diphosphate (Sigma) was used in the same experiments as a reference and also in twelve, 4-fold dilutions (final concentrations 2×10^−5-1.19×10^−12M). Each compound was tested in duplicate.
Testing was performed in vitro based upon the method of Desjardins, et al (supra, 1979), as modified by O'Neill, et al. (Planta Med., 51, 394-399, 1985) and Ekong, et al. (Biochem. Pharmacol., 40, 297-301, 1990). The parasites (50 μl initial parasitemia of 1%, hematocrit of 5%) were incubated for 24 h in microtitre plates (Nunc) in normal (not hypoxanthine-depleted) medium in the presence of 50 μl of test solution. Controls were set up in each test by preparing 12-24 wells with non-parasitized RBC's and no test solution and 12-24 wells with parasitized RBC's and no test compound. Thereafter, 5 μl all of ^3H-hypoxanthine (Amersham) were added (0.2 μCi well ^−1), and the parasites incubated for a further period of 18 h. Each well was harvested with a Cell Harvester (Skatron). Glass fibre filters were dried briefly. Radioactivity was measured by liquid scintillation counting in Ecoscint (National Diagnostics).
The results obtained as cpm were expressed as percentages of incorporation of growth inhibition. The dose-related part of the sigmoidal curves obtained were linearized by regression analysis with the aid of software developed by S. Grant (I.SHTM) and used to calculate the IC50 values.

[4] = tested on: Plasmodium berghei (Anka strain); experiment: In vivo antimalarial test in OF1 mice inoculated with P. berghei; settings: for Parasitemia (%) at day 4 / Parasitemia (%) at day 10: average (95% CI)
Experimental: Outbred, female, six-week-old OF1 mice (six mice per group treated and nontreated [control]) were inoculated intraperitoneally on day 0 with 10^6 P. berghei (Anka strain) blood forms. Two hours later, they were administered orally 50 mg/kg of dioncopeltine A or dioncophylline B. A second, third, and fourth treatment (50 mg/kg each) was given after 24, 48 and 72 h, respectively (days 1, 2, and 3). […] The parasitemia (%) in the control (not drug-treated) group was 3.50 (range 3.02-3.97; N=6). In the dioncopeltine A treated group, the parasitemia was 0.03 (range 0.01-0.06; N=6); in the dioncophylline B treated group, the parasitemia was […] (range 0.66-3.07; N=6).
The in vivo antimalarial testing was performed as described above, except that more doses and different treatment schedules were employed, as described in Tables 3 and 4.

[5] = 50 mg/kg/d oral, 1 day of treatment
[6] = 50 mg/kg/d oral, 2 days of treatment
[7] = 50 mg/kg/d oral, 3 days of treatment
[8] = 50 mg/kg/d oral, 4 days of treatment
[9] = oral treatment with 4×50 mg/kg/d

Molecule: COc1c(-c2c(C)cc(OC)c3c(O)cccc23)ccc2c1C(C)NC(C)C2 (stereo not drawn) [8-O-methyl-5′-O-demethyl-7-epi-dioncophylline A]
- IC50 P. falciparum NF54 strain [1]: 1.584 µg/mL (≈ 4.2 µM)
- IC50 P. berghei, Anka [2]: 4.580 µg/mL (≈ 12.1 µM)

Molecule: COc1cc(CO)c(-c2ccc3c(c2O)[C@@H](C)N[C@H](C)C3)c2cccc(O)c12 [Dioncopeltine A]
- IC50 P. falciparum NF54 strain [1]: 0.021 µg/mL (≈ 0.0553 µM)
- IC50 P. falciparum, K1 strain [3]: 0.330 µg/mL (≈ 0.87 µM)
- IC50 P. berghei, Anka [2]: 0.038 µg/mL (≈ 0.1 µM)
- Signs of toxicity or other side effects ([4]; 50 mg/kg oral on days 0, 1, 2, 3, OF1 mice): In neither of the treated groups were any signs of toxicity or other side effects observed
- Parasitemia (%) from blood smears at day 4 ([4]; 50 mg/kg oral on days 0, 1, 2, 3, OF1 mice, N=6): 0.03%

Molecule: COc1cc(O)c(-c2c(C)cc(OC)c3c(OC)cccc23)c2c1[C@H](C)N[C@@H](C)C2 [Ancistrocladine]
- IC50 P. falciparum NF54 strain [1]: 18.353 µg/mL (≈ 45 µM)
- IC50 P. falciparum, K1 strain [3]: 25.350 µg/mL (≈ 62.2 µM)
- IC50 P. berghei, Anka [2]: >50 µg/mL

Molecule: N-formyl-ancistrocladine
- IC50 P. falciparum NF54 strain [1]: 8.129 µg/mL

Molecule: N-methyl-ancistrocladine
- IC50 P. falciparum NF54 strain [1]: 0.491 µg/mL

Molecule: COc1cc(C)c(-c2ccc(O)c3c2C[C@@H](C)N[C@@H]3C)c2cccc(O)c12 [Dioncophylline C]
- IC50 P. falciparum NF54 strain [1]: 0.005 µg/mL (≈ 0.0138 µM)
- IC50 P. berghei, Anka [2]: 0.015 µg/mL (≈ 0.0413 µM)
- Parasitemia (%) at day 4 ([4]; 3.125 mg/kg/d oral, days 0-3): 5.36 (3.96 − 6.75) %
- Parasitemia (%) at day 4 ([4]; 6.25 mg/kg/d oral, days 0-3): 4.42 (2.77 − 6.06) %
- Parasitemia (%) at day 4 ([4]; 12.5 mg/kg/d oral, days 0-3): 3.36 (2.35 − 4.37) %
- Parasitemia (%) at day 10 ([4]; 12.5 mg/kg/d oral, days 0-3): 26.91 (0.00 − 60.36) %
- Parasitemia (%) at day 4 ([4]; 25 mg/kg/d oral, days 0-3): 0.62 (0.00 − 1.34) %
- Parasitemia (%) at day 10 ([4]; 25 mg/kg/d oral, days 0-3): 29.82 (11.20 − 48.43) %
- Parasitemia (%) at day 4 [4, 5]: 0.02 (0.00 − 0.05) %
- Parasitemia (%) at day 10 [4, 5]: 7.87 (0.00 − 23.92) %
- Parasitemia (%) at day 4 [4, 6]: 0.01 (0.00 − 0.02) %
- Parasitemia (%) at day 10 [4, 6]: 0.41 (0.00 − 1.38) %
- Number of OF1 negative (neg) at day 10 ([4]; 50 mg/kg/d oral, 2 days of treatment, n = 5): (2 0F1 neg)
- Parasitemia (%) at day 4 [4, 7]: 0.00 (0.00 − 0.00) %
- Parasitemia (%) at day 10 [4, 7]: 0.003 (0.000 − 0.012) %
- Number of OF1 negative (neg) at day 10 ([4]; 50 mg/kg/d oral, 3 days of treatment, n = 6): (5 0F1 neg)
- Parasitemia (%) at day 4 [4, 8]: 0.00 (0.00 − 0.00) %
- Parasitemia (%) at day 10 [4, 8]: 0.00 (0.00 − 0.00) %
- Number of OF1 negative (neg) at day 10 ([4]; 50 mg/kg/d oral, 4 days of treatment, n = 6): (6 0F1 neg)
- Parasitemia (%) at day 4 ([4]; 50 mg/kg/d oral, days 0-3): 0.00 (0.00 − 0.00) %
- Parasitemia (%) at day 10 ([4]; 50 mg/kg/d oral, days 0-3): 0.00 (0.00 − 0.00) %
- Parasitemia (%) at day 4 ([4]; 100 mg/kg/d oral, days 0-3): 0.00 (0.00 − 0.00) %
- Parasitemia (%) at day 10 ([4]; 100 mg/kg/d oral, days 0-3): 0.00 (0.00 − 0.00) %
- Development of erythrocytic forms of P. berghei [4, 9]: completely and permanently inhibited
- Indications of toxicity [4, 9]: no observed indications of any toxicity

Molecule: 6-deoxy-N-methyl-ancistrocladine
- IC50 P. falciparum NF54 strain [1]: 10.079 µg/mL

Molecule: 7-epi-dioncophylline A
- IC50 P. falciparum NF54 strain [1]: 0.190 µg/mL

Molecule: Dioncolactone A
- IC50 P. falciparum NF54 strain [1]: 1.337 µg/mL
- IC50 P. berghei, Anka [2]: 0.598 µg/mL

Molecule: Dioncophylleine A
- IC50 P. falciparum NF54 strain [1]: 21.295 µg/mL

Molecule: COc1cccc2c(-c3ccc4c(c3O)[C@@H](C)N[C@H](C)C4)c(C)cc(OC)c12 [Dioncophylline A]
- IC50 P. falciparum NF54 strain [1]: 1.443 µg/mL (≈ 3.82 µM)
- IC50 P. falciparum, K1 strain [3]: 0.860 µg/mL (≈ 2.28 µM)
- IC50 P. berghei, Anka [2]: 0.961 µg/mL (≈ 2.55 µM)

Molecule: N-formyl-dioncophylline C
- IC50 P. falciparum NF54 strain [1]: 3.132 µg/mL
